Laboratory results from patent US10508111B2, “6-[5-amino-6-(2-ethoxyethoxy)-imidazo[4,5-B]pyridin-3-yl]-nicotinonitrile derivatives and their use as IRAK inhibitors” (GALAPAGOS NV, priority 2015, dated 2019).
pIC50: −log10 of the molar value.

Key:
[1] = test system: IL-1β triggered MMP13 release in SW1353 cells; test: SW1353 cellular selectivity assay, IL-1β trigger, MMP13 readout; format: cell-based, human; conditions: IL-1β trigger 1 ng/mL; for pIC50: Homo sapiens; for IL-1β trigger MMP13 PIN at 20 μM: percent inhibition at 20 μM compound
Description: (§1) The aim of this assay is to evaluate the selectivity of compounds of the invention for the activated TLR/IRAK-4 pathway in an in vitro human cellular assay setting. SW1353 cells are from a chondrocytic cell line and are responsive to both the interleukin 1 (IL-1) and the TNFα cytokine triggers. Both cytokine triggers induce the expression of interleukin 6 (IL-6) and MMP13 by these cells. IL-6 and MMP13 releases are used as readouts in this assay and represent a measure for the level of inhibition of the TLR/IRAK-4 pathway by the tested compound.
(§2) SW1353 cells are cultured in DMEM supplemented with 10% FBS and 1% Penicillin/Streptomycin. Cells are incubated at 37° C. in a humidified atmosphere of 5% CO2 and subcultured twice a week. During subculturing, trypsin-EDTA is used to detach the cells, followed by a neutralization step with cell culture medium. After centrifugation (1,000 rpm during 5 min), the pellet is resuspended in cell culture medium and cells are counted using an automated cell counter (Invitrogen Countess™).
(§3) Cells are used at passage 16 and plated at a density of 15,000 cells per well in 120 μL cell culture medium in 96-well culture plates. Cells are allowed to attach during overnight incubation.
(§4) SW1353 cells are pre-incubated with test compound by addition of 15 μL of 10× concentrated compound solution for 2 h at 37° C. and 5% CO2. The compounds are tested at different concentrations and prepared by 3-fold serial dilutions from the 10 mM stock solution in DMSO followed by a 1/50 dilution step in cell culture medium. Final test concentrations in the assay start from 20 μM, with subsequent 3-fold serial dilutions with equal final DMSO concentrations of 0.2%. After the compound pre-incubation step, the SW1353 cells are triggered by addition of 15 μL of 10× concentrated IL-1f (Peprotech, 200-01B) or TNFα trigger (Peprotech, 300-01A) to the wells with final assay volume of 150 μL per well and final trigger concentration of 1 ng/mL and 10 ng/mL, respectively. Negative controls are adjusted with equal DMSO concentrations without trigger. The assay plates are then incubated in a humidified incubator at 37° C. and 5% CO2. Cell supernatants are harvested 24 h and 48 h later by transferring the cell medium into a V-bottom polypropylene 96-well plate and stored at −80° C. until ELISA readout.
The levels of secreted MMP13 in the cell supernatants are quantified in an antibody capture activity assay. […] After incubation for 1 h at 37° C., fluorescence of the converted substrate is measured with a PerkinElmer EnVision® (excitation wavelength: 320 nm, emission wavelength: 405 nm).
(§5) All controls are measured within the linear range of the human IL-6 and MMP13 standard curve of the ELISA. […]

[2] = test system: TNFα triggered IL-6 release in SW1353 cells; test: SW1353 cellular selectivity assay, TNFα trigger, IL-6 ELISA readout; format: cell-based, human; conditions: TNFα trigger 10 ng/mL; for pIC50: Homo sapiens; for TNFα trigger IL-6 PIN at 20 μM: percent inhibition at 20 μM compound
Description: as §1, §2, §3, §4
The levels of secreted IL-6 in the cell supernatants are quantified in an enzyme-linked immunosorbent assay (ELISA). […] Luminescence of the converted substrate is measured with a Luminoskan™ Ascent luminometer.
as §5

| pIC50 [1] | pIC50 [2] | Compound | IL-1β trigger MMP13 PIN at 20 μM [1] | TNFα trigger IL-6 PIN at 20 μM [2] |
| --- | --- | --- | --- | --- |
| 7.44 | < 4.70 | N#Cc1ccc(-n2cnc3cc(OCCOCCO)c(NC4CCOCC4)nc32)nc1 [Compound 1, 6-[6-[2-(2-hydroxy-ethoxy)-ethoxy]-5-(tetrahydro-pyran-4-ylamino)-imidazo[4,5-b]pyridin-3-yl]-nicotinonitrile] | [81%] | [54%] |
| 7.54 | < 4.70 | C[C@]1(O)CC[C@@H](Nc2nc3c(cc2OCCOCCO)ncn3-c2ccc(C#N)cn2)CC1 [Compound 12, 6-[6-[2-(2-hydroxyethoxy)ethoxy]-5-[((cis-1,4)-4-hydroxy-4-methylcyclohexyl)amino]imidazo[4,5-b]pyridin-3-yl]pyridine-3-carbonitrile] | [75%] | [22%] |
